Data taken from patent US11083795B2, “Amorphous metal-organic frameworks” (Cambridge Enterprise Limited, priority 2015, dated 2021).

How the values were obtained:
[1] = test system: HeLa cells; assay: Drug cellular uptake by confocal microscopy; type: cell-based; conditions: 24 h incubation; frameworks 0.5 mg/mL, free calcein 0.075 mg/mL
Description: HeLa cells were seeded in a NUNC™ imaging four-well plate at a density of 1.11×10^5 cell/mL and incubated for 24 h at 37° C. with 5% CO2 in DMEM supplemented with 10% (v/v) Fetal Bovine Serum (FBS), 2 mM L-glutamine, 100 units/mL penicillin and 100 μg/mL streptomycin.
The cells were washed twice with PBS and incubated together with calcein-loaded crystalline Zr-containing metal-organic frameworks (0.5 mg/mL) for 24 h. The amorphous frameworks were obtained by mechanical amorphization of calcein-loaded crystalline Zr-containing metal-organic frameworks. The metal-organic frameworks were well-dispersed in culture media before they were added to the cells.
Untreated cell and free calcein (at a concentration of 0.075 mg/mL) were included as controls.
After incubation for 24 h, the cells were washed several times to remove the non-internalized particles. Cells then were incubated for 15 min with Hoechst 33342 (H33342) and 1× of CellMask™ Orange to stain the nucleus and cell membrane, respectively (each dye provided at a concentration of 5 μg/mL). The cells were then washed extensively to remove the dyes and fresh media (without phenol red) was added to each sample. Finally, the plate was placed on a Leica TCS SP5 confocal microscope for imaging. The microscope was equipped with 405 diode, argon and HeNe lasers. Leica LAS AF software was used to analyse the images.

[2] = test system: rat; set-up: lethal dose LD50: unit not given here; conditions: cited from earlier work

Row | Structure (SMILES) | calcein signal in HeLa cells by confocal microscopy [1] | lethal dose LD50 ([2]; in rats) | oral lethal dose, LD50 ([2]; oral, rat model)
1 | O=C(O)CN(CC(=O)O)Cc1cc2c(cc1O)Oc1cc(O)c(CN(CC(=O)O)CC(=O)O)cc1C21OC(=O)c2ccccc21 [calcein] | stained weakly in the form of bright vesicles | – | –
2 | CC(=O)[O-].CC(=O)[O-].[O-2].[Zr+4] [zirconyl acetate] | – | ~4.1 | around 4.1 g/kg
